Values of other authors in publication PMC2810551 (Chemistry & biology, 2009).

System: CD4+ T cells expressing the MBP Ac1-11 specific Vα2.3/Vβ8.2 TCR
Conditions: immunization with MBP Ac1-11; B10.PL mice; ref [6]

Ac-ASQKRPSQRSK [MBP Ac1-11]
activation and expansion of specific CD4+ T cells: results in activation and expansion of CD4+ T cells expressing the MBP Ac1-11 specific Vα2.3/Vβ8.2 TCR
